Paper PMC6265740, “Biochemical and Anti-Triple Negative Metastatic Breast Tumor Cell Properties of Psammaplins” (Marine Drugs, 2018)
One block for each compound: values may come before it.

Tests used:
[1] = system: VEGF protein; assay: ELISA of cellular and secreted VEGF proteins in T47D cells; format: cell-based, human; conditions: normalized to cellular proteins
Description: (§1) Around 100 genes have been identified as HIF-1 target genes that encode proteins involved in various aspects of cellular physiology. While most of these genes are regulated in a cell type-specific manner, some are induced upon HIF-1 activation in most cell types. Based on availability and potency, compound 4 (a stereoisomer of 2) was selected for follow-up studies. The effects of 4 on the expression of HIF-1 target genes cyclin dependent kinase inhibitor 1A (CDKN1A) and vascular endothelial growth factor A (VEGFA) were examined by quantitative real time RT-PCR (Figure 2). The HIF-1 activator 1,10-phen (10 μM) and the pan-HDAC inhibitor TSA (0.1 and 1 μM, respectively) were included as positive controls. In T47D cells, 4 and TSA each increased the levels of CDKN1A mRNA in a concentration-dependent manner (2.9-fold for 4 at 10 μM and 7.2-fold for TSA at 1 μM, Figure 2A). In contrast, neither 4 nor TSA exerted greater than 20% effect on the levels of VEGF mRNA (Figure 2B). The gene VEGF encodes vascular endothelial growth factor A (a potent angiogenic factor) and agents that inhibit VEGF are in clinical use for cancer. The expression of cellular and secreted VEGF proteins was examined in T47D cells by ELISA assay.
Figure 2 Effects of 4 and trichostatin A (TSA) on HIF-1 target gene expression. T47D cells were exposed to 4 and TSA at the specified concentrations for 16 h. The compound 1,10-phen (10 µM) was included as a positive control. The levels of cyclin dependent kinase inhibitor 1A (CDKN1A) (A) and vascular endothelial growth factor (VEGF) (B) mRNA following treatments were determined by quantitative real time RT-PCR. Relative levels of target gene mRNA normalized to an internal control (18S rRNA) are shown as average ± standard deviation (n = 3, one representative experiment). The levels of cellular (C) and secreted VEGF protein (D) were determined by ELISA and normalized to the amount of cellular proteins. Data shown are average + standard deviation (n = 3). An asterisk “*” indicates p < 0.05 when compared to the media control.
(§2) The effects of test samples on HIF-1 target gene expression were assessed in T47D cells. To determine the levels of CDKN1A and VEGF mRNA, quantitative real-time RT-PCR was performed as described. To determine the levels of cellular and secreted VEGF proteins, T47D cells were exposed to compounds as described, the levels of VEGF proteins in the conditioned medium and cell lysate samples determined by ELISA [21], the amount of proteins in the cell lysate samples quantified using a micro BCA assay kit (Thermo Fisher Scientific, Rockford, IL, USA), and the level of VEGF proteins normalized to that of cellular proteins.

[2] = system: VEGF mRNA; assay: Quantitative real time RT-PCR of VEGF mRNA in T47D cells; format: cell-based, human; conditions: 10 μM, 16 h
Description: as §1, with “The gene VEGF encodes vascular endothelial growth factor A (a potent angiogenic factor) and agents that inhibit VEGF are in clinical use for cancer. The expression of cellular and secreted VEGF proteins was examined in T47D cells by ELISA assay.” left out
Figure 2 Effects of 4 and trichostatin A (TSA) on HIF-1 target gene expression. […] The levels of cyclin dependent kinase inhibitor 1A (CDKN1A) (A) and vascular endothelial growth factor (VEGF) (B) mRNA following treatments were determined by quantitative real time RT-PCR. […] The levels of cellular (C) and secreted VEGF protein (D) were determined by ELISA and normalized to the amount of cellular proteins. […]
as §2

[3] = system: BoM spheroids; assay: Cultrex 3D spheroid cell invasion assay; format: cell-based, human; conditions: 96 h, in comparison to the HDAC inhibitors
Procedure: In order to form metastatic lesions, metastasis-initiating tumor cells must invade and intravasate into the lymphatic vasculature and/or blood vessels. Psammaplins were evaluated in a Cultrex® 3-D cell invasion assay that monitors the invasion and migration of tumor cells grown as spheroids, which closely model in vivo pathophysiological conditions.
Figure 5 Inhibition of bone metastatic BoM cell invasion. Tumor cell spheroids formed in a special spheroid formation extracellular matrix (ECM) were embedded in an invasion matrix containing 10% fetal bovine serum (FBS) in the presence and absence of compounds at the specified concentrations. Four days later (T96), cell invasion was recorded microscopically (the bar at the bottom right represents 100 µm).
The 3D spheroid cell invasion assay was performed using a commercial kit, following the manufacturer’s instructions (Cultrex® 3D Spheroid Cell Invasion Assay, Trevigen, Gaithersburg, MD, USA). Briefly, exponentially grown MDA-MB-231, LM, BoM, and BrM cells were trypsinized, collected, and resuspended in serum-free DMEM/F12 media. For spheroid formation, 3000 cells were added in a volume of 50 µL serum-free DMEM/F12 media with 1× spheroid formation solution/well into a pre-cooled 96-well plate. The plate was centrifuged at 100× g for 5 min at 4 °C, incubated at 37 °C for 24 h, and the spheroids imaged using an Axiovert 40 CFL microscope (Zeiss, Oberkochen, Germany). The plate was placed on ice, the invasion mix added in a volume of 50 µL/well, centrifuged at 350× g for 5 min at 4 °C, and incubated at 37 °C for 1 h. Test compounds and controls were diluted to two times the final concentrations in DMEM/F12 media supplemented with FBS (10%) and antibiotics, and added in a volume of 100 µL/well. The incubation continued for another 4 days at 37 °C and the cells/spheroids imaged (T96).

[4] = system: HDAC; assay: MDA-MB-435 cell-based HDAC assay (HDAC-Glo); conditions: MDA-MB-435 cells, 30 min incubation, n = 6 pooled from two experiments
Procedure: Test compounds were added at specified concentrations to exponentially grown cells plated in 96-well plates. After 30 min incubation, the HDAC activity was determined using a commercial kit (HDAC-Glo™, Promega, Madison, WI, USA) and normalized to that of the dimethyl sulfoxide (DMSO) solvent control.
Exponentially grown cells were seeded at the density of 5000 cells/well into 96-well plates (Corning, Corning, NY, USA) and incubated overnight. Compounds dissolved in DMSO were added to achieve the specified final concentrations (total volume: 100 μL, DMSO: 0.5%). The incubation continued for 30 min at 37 °C and the HDAC activity determined using a commercial luminescent assay (HDAC-Glo™, Promega, Madison, WI, USA).

[5] = system: HIF-1; assay: T47D cell-based reporter assay (pHRE-luc) for HIF-1 activity; set-up: species or system human; conditions: for HIF-1 activation (highest level): T47D pHRE-luc, 16 h, no stimulus, n = 3; for normalized ratio of pHRE-luc/pGL3-control: T47D
Procedure: Cellular adaptation to hypoxia (low oxygen tension) is primarily mediated via the transcription factor hypoxia-inducible factor-1 (HIF-1), that regulates oxygen homeostasis by activating the expression of genes that increase oxygen availability and those that decrease oxygen consumption. […] In a T47D cell-based reporter assay, a lipid extract sample of the sponge Dendrilla lacunosa activated HIF-1 by 3.56-fold (NIH collection No. C025691, 10 μg mL^−1). Bioassay-guided fractionation of the extract sample (2.6 g) and chemical structure elucidation afforded five known compounds psammaplin E (1), (E,Z)-psammaplin A (2), (E,E)-psammaplin K (3), (E,E)-psammaplin A (4), and bisaprasin (5). To determine the effects of 1–5 on HIF-1 activity, concentration-response studies were performed in a T47D cell-based reporter assay (Figure 1B). An iron chelator (1,10-phenanthroline, 10 μM) was included as a positive control. Compounds 1–4 activated HIF-1 in a biphasic manner. […] Hypoxia (1% O2) and chemical hypoxia (iron chelators or transition metals) represent two common stimuli that activate HIF-1 [24, 25, 26]. Further studies were performed to determine the effects of 1–5 on HIF-1 activity in the presence of other stimuli (1,10-phenanthroline, Figure 1C; hypoxia, Figure 1D). While 1–4 acted synergistically with 1,10-phenanthroline and hypoxia to activate HIF-1, a biphasic pattern of activation similar to that in the absence of stimulus […] was observed. […] Previous studies reported that psammaplins inhibit histone deacetylase (HDAC) enzymes. To determine if HDAC inhibition non-specifically activates HIF-1, concentration-response studies were conducted in T47D cells transfected with the pGL3-control plasmid. […] One possible scenario is that these compounds incur significant amount of cellular stress at higher concentrations, leading to the inhibition of gene expression in general.
Figure 1 Concentration-dependent biphasic effects of 1–4 on HIF-1 activation. (A) Structures of psammaplins isolated from Dendrilla lacunosa. (B) Concentration-response results of 1–5 in T47D cells transfected with pHRE-luc for HIF-1 activity. Test compounds were added at the increasing concentrations of 0.1, 0.3, 1, 3, 10, and 30 µM, as specified. The positive control 1,10-phenanthroline (1,10-phen) was used at 10 µM. Data shown are average ± standard deviation (n = 3). (C) Similar to described in (B) except that the pHRE-luc transfected T47D cells were exposed to test compounds in the presence of 10 µM 1,10-phen, and the data were normalized to the positive control (1,10-phen). (D) Similar to described in (C) except that hypoxic exposure (1% O2: 5% CO2: 94% N2, 16 h) was applied in place of 1,10-phen. (E) As described in (B) except that T47D cells were transfected with the pGL3-control construct. An asterisk “*” indicates p < 0.05 when compared to the controls (“Media” for B, D, and E; and “1,10-phen” for C).
To monitor HIF-1 activity, T47D cells were transfected with the pHRE3-TK-Luc construct and the cell-based luciferase reporter assay was performed as described. Cells were exposed to test compounds in the absence and presence of 1,10-phenanthroline (10 μM) or hypoxic conditions (1% O2: 5% CO2: 94% N2) for 16 h. The cells were lysed and luciferase activity determined with a commercial kit (Promega, Madison, WI, USA). For the cell-based control reporter assay, T47D cells were transfected with the pGL3-control construct (Promega, Madison, WI, USA), exposed to test compounds for 16 h, and the luciferase reporter assay performed as described.

Structure (SMILES): c1cnc2c(c1)ccc1cccnc12 [1,10-phen, 1,10-phenanthroline]
VEGF expression, cellular protein [1]: induced VEGF expression | VEGF expression, secreted protein [1]: induced VEGF expression | VEGF expression, mRNA [2]: induced VEGF expression

Structure (SMILES): C[C@@H]1C[C@@H]([C@H](O)CC2CC(=O)NC(=O)C2)C(=O)[C@@H](C)C1 [CHX, cycloheximide]
size of the spheroids [3]: more pronounced decrease in the size of the spheroids

IC50 [4]: 257 nM
Structure (SMILES): NC(=O)C(=O)NCCSSCCNC(=O)/C(Cc1ccc(O)c(Br)c1)=N/O [Compound 1, psammaplin E]
HIF-1 activation (highest level) ([5]; 10 μM): 12.01 ± 1.12 fold | normalized ratio of pHRE-luc/pGL3-control ([5]; 10 μM): 2.64 fold

IC50 [4]: 19 nM
Structure (SMILES): O=C(NCCSSCCNC(=O)C(Cc1ccc(O)c(Br)c1)=NO)C(Cc1ccc(O)c(Br)c1)=NO [Compound 2, (E,Z)-psammaplin A]
HIF-1 activation (highest level) ([5]; 3 μM): 12.32 ± 0.70 fold | normalized ratio of pHRE-luc/pGL3-control ([5]; 3 μM): 2.38 fold
